Reference: paper PMC7394242 (Journal of molecular biology, 2020)

B1: periplasmic/soluble domain of the antiholin RI (sRI), residues 25-97, with C-terminal histidine tag (domain or fragment, T4 phage, UniProt P13304 25-97, looked up)
chain: NVDPHFDKFMESGIRHVYMLFENKSVESSEQFYSFMRTTYKNDPCSSDFECIERGAEMAQSYARIMNIKLETE
modifications: disulfide bond between Cys69 and Cys75

Key:
sRI-sT complex = sRI-sT complex (Enterobacteria phage T4, UniProt P06808+P13304); assay: biochemical; format: binding
crystal structure = biological target: the molecule itself; assay: crystal structure

sRI-sT complex, sequence (P06808 56-218, one chain of several): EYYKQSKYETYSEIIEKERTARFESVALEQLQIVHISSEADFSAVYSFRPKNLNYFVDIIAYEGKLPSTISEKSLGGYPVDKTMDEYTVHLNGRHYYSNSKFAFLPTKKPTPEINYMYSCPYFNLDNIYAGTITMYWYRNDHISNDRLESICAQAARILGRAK

Molecule | Kd (sRI-sT complex) [µM] | stoichiometry N (crystal structure)
Nc1nc2c(ncn2[C@@H]2O[C@H](CO)[C@@H](O)[C@H]2O)c(=O)[nH]1 [guanosine] | 43 | –
B1 | – | 4
